Measured values taken from patent publication US5032584A, “S-diastereomer of an n^6 -((2-hydroxypropyl)aryl)adenosine and its medicinal uses” (G. D. Searle & Co., priority 1988, dated 1991).
Entries after “also recorded” stand apart in the source; their conditions may differ.

Columns and labels:
[1] = tested on: adenosine A1 receptor in the granular juxtaglomerular cells of the kidney; conditions: Federation Proceedings 44:879 & 1643, 1985; cited from earlier work
mice [2] = assay: Behavioral toxicity in mice after 75 mg/kg IP; type: in vivo; parameters: key to Motor depression / Ptosis / Respiratory depression / Flaccidity / Loss of righting reflex: +: toxic symptom observed
Experimental: (§1) Adenosine analogs tend to produce sedation and central nervous system depression which have prevented their therapeutic utility. The compounds of the invention, at doses which lower arterial pressure in the SHR, show no evidence of CNS depression. The ataxia produced by compounds of the present invention was measured in mice by injecting the compounds IP at doses of 32, 56, or 75 mg/kg in an aqueous suspension, n=7 per dose. The mice had previously been trained to remain on a rotating rod. After dosing, the percent of mice unable to remain on the rotating rod was determined. […] The mice were also observed at various time intervals for behavioral signs of toxicity.

mice [3] = assay: Ataxia on the rotating rod in mice; type: in vivo; conditions: for Percent ataxic, 0.5 hour / Percent ataxic, 3 hour: 54 ± 12 mg/kg ip (pooled 32, 56, 75 mg/kg)
Experimental: as §1

[4] = tested on: plasma renin activity (PRA); assay: Change in plasma renin activity in the bilateral renal artery ligated rat; type: in vivo, Sprague-Dawley rats; conditions: 1 mg/kg I.V.; for Prevention of PRA increase (in words): 30 and 60 minutes
Experimental: Adenosine Al receptor stimulation will inhibit the release of renin from the kidney. A stimulus for the release of renin is renal ischemia. The ability of the compounds of the present invention to prevent an increase in PRA following renal ischemia was tested in rats with both renal arteries ligated. Sprague-Dawley rats were anesthetized with ether and the renal arteries were ligated. Three to five hours after anesthesia, arterial blood was sampled and compounds I and II were administered in polyethylene glycol at 1 mg/kg I.V. At 30 and 60 minutes after administration, arterial blood was sampled for PRA measurement by the method of Sealy, J. E. et al., Cardiovasc. Med. 2:1079, 1977.

Solubility in MeOH = type: physicochemical; conditions: S isomer vs R isomer
[5] = tested on: spontaneously hypertensive rats (SHR); assay: Effects on mean arterial pressure and heart rate in conscious spontaneously hypertensive rats (i.v. or intragastric); type: in vivo, rat
Experimental: The effects of compounds I and II were tested intravenously or intragastrically in conscious spontaneously hypertensive rats (SHR). The rats were anesthetized with ether and the left carotid artery and right jugular vein were cannulated with polyethylene tubing. The rats were allowed three to five hours recovery from anesthesia for the I.V. studies and 12 to 18 hours for the oral studies. Mean arterial pressure (MAP, in mm/Hg) and heart rate (HR, beats/min.) were measured from the artery; intravenous administration of compounds was performed by injection into the vein. Oral administration was performed by gastric intubation. Compounds were dissolved in DMSO for I.V. studies and injected in volumes of 100 μ1/kg or less (N=5 per pound). Doses were 3 to 1,000 μg/kg. Compounds were dissolved in polyethylene glycol for oral administration and injected in volumes of 1 ml/kg at a dose of 20 mg/kg/day for three days (N=3 to 6 per compound).
The resting MAP and HR for the SHR ranged between 160-200 mm Hg and 330/350 b/min., respectively.

[6] = 20 mg/kg intragastric, day 2 of oral administration

Row | Structure (SMILES) | Flaccidity (mice [2]; 75 mg/kg IP, 18-20 h) | Motor depression (mice [2]; 75 mg/kg IP, 18-20 h) | Ptosis (mice [2]; 75 mg/kg IP, 18-20 h) | Motor depression (mice [2]; 75 mg/kg IP, 0.5 h) | Ptosis (mice [2]; 75 mg/kg IP, 0.5 h) | Motor depression (mice [2]; 75 mg/kg IP, 3 h) | Ptosis (mice [2]; 75 mg/kg IP, 3 h) | Percent ataxic, 0.5 hour (mice [3]) [%] | Percent ataxic, 3 hour (mice [3]) [%] | Prevention of PRA increase (in words) [4] | Solubility in MeOH (in words) (Solubility in MeOH) | also measured
1 | OC[C@H]1O[C@@H](n2cnc3c(NCC(O)COc4cccc5ccccc45)ncnc32)[C@H](O)[C@@H]1O (mixture of isomers) [Compound I, N(6)-[2-hydroxy-3-(1-naphthyloxy)propyl]-adenosine] | + | + | + | + | + | + | + | 33 ± 10 | 95 ± 5 | prevented to the same extent |  | Binding to adenosine A1 receptor and effect on renin release, blood pressure, heart rate (in words) [1]: binds to the adenosine Al receptor in the granular juxtaglomerular cells of the kidney to inhibit release of renin into the plasma, ultimately resulting in a reduction in circulating angiotensin II, thus reducing arterial blood pressure and heart rate in hypertensive models; Flaccidity, incidence (footnote *) (mice [2]; 75 mg/kg IP, 18-20 h): 2/7; Respiratory depression (mice [2]; 75 mg/kg IP, 18-20 h): +; Respiratory depression (mice [2]; 75 mg/kg IP, 0.5 h): +; Behavioral toxicity (in words) (mice [2]; 75 mg/kg IP, 3 h): flaccidity and loss of righting reflex; Flaccidity (mice [2]; 75 mg/kg IP, 3 h): +; Loss of righting reflex (mice [2]; 75 mg/kg IP, 3 h): +; Respiratory depression (mice [2]; 75 mg/kg IP, 3 h): +
2 | OC[C@H]1O[C@@H](n2cnc3c(NC[C@@H](O)COc4cccc5ccccc45)ncnc32)[C@H](O)[C@@H]1O [R isomer] |  |  |  |  |  |  |  |  |  |  | more soluble in MeOH | 
3 | OC[C@H]1O[C@@H](n2cnc3c(NC[C@H](O)COc4cccc5ccccc45)ncnc32)[C@H](O)[C@@H]1O [Compound II, N^6-[2S-hydroxy-3-(1naphthalenyloxy)propyl]-adenosine] | + | + | + | + | + | + | + | 14 ± 8 | 48 ± 21 | prevented to the same extent | less soluble in MeOH | Motor depression (mice [2]; 75 mg/kg IP, 24 h): +; Motor depression, incidence (mice [2]; 75 mg/kg IP, 24 h): 5/7; Ptosis (mice [2]; 75 mg/kg IP, 24 h): +; Ptosis, incidence (mice [2]; 75 mg/kg IP, 24 h): 5/7; Respiratory depression, incidence (mice [2]; 75 mg/kg IP, 24 h): 5/7; Respiratory depression (mice [2]; mouse, in vivo): +; Central nervous system toxicity (in words) (mice [3]; compared to compound I / racemic mixture): less CNS toxic than compound I, especially with regard to ataxia; also recorded: less central nervous system toxicity than the racemic mixture; Ataxia / motor toxicity (in words) (mice [3]; mice, ip, compared to compound I): less ataxia at 0.5 or 3 hours as compared to compound I; also recorded: less motor toxicity than compound I; Maximum decrease at 20 mg/kg ig, HR [5, 6]: 202 ± 24 b/min; Maximum decrease at 20 mg/kg ig, MAP [5, 6]: 62 ± 7 mmHg; ED (HR decrease by 100 b/min) ([5]; Rattus norvegicus, iv, i.v. in DMSO, read-out: IV dose to decrease HR by 100 b/min): 0.036 ± 0.0012 mg/kg; ED (MAP decrease by 40 mmHg) ([5]; Rattus norvegicus, iv, i.v. in DMSO, read-out: IV dose to decrease MAP by 40 mmHg): 0.047 ± 0.0012 mg/kg; Change in PRA, 30 minutes ([4]; 30 min after dosing): -11.7 ± 3.5 ngAI/ml/hr; Change in PRA, 60 minutes ([4]; 60 min after dosing): -13.8 ± 4.9 ngAI/ml/hr
